Test results taken from US8927659B2, “Resorbable phenolic polymers” (TYRX, Inc., priority 2005, dated 2015).
Values after ≈ are worked out from the molar mass of the structure shown.

Test: Water solubility of monomer building blocks (Tables 1 and 2)
Type: physicochemical
Settings: for solubility: water

Compound: O=C(O)CCCC(=O)O [Glutaric acid]
- solubility (Table 2, unit inferred): 640000 µg/mL (≈ 4840 mM)

Compound: NC(C(=O)O)c1ccc(O)cc1 (centres unmarked) [Hydroxyphenyl glycine]
- solubility: 5000 µg/mL (≈ 29.9 mM)

Compound: O=C(O)c1ccc(O)cc1 [4-hydroxy benzoic acid]
- solubility (Table 2, unit inferred): 8000 µg/mL (≈ 57.9 mM)

Compound: O=C(O)CCc1ccc(O)cc1 [DAT]
- solubility (Table 2, unit inferred): 1630 µg/mL (≈ 9.81 mM)

Compound: O=C(O)COCC(=O)O [Diglycolic acid]
- Water Solubility (Table 2, unit not given): Water soluble
